According to US9610291B2, “Treatment of respiratory depression” (NUMEDICUS LIMITED, priority 2012, dated 2017):

Experiments:
conscious rats = assay: Opiate-induced respiratory depression; whole-body plethysmography in conscious rats; type: in vivo; conditions: for increase in the respiratory activity: before morphine
Procedure: Whole-body plethysmography is used to assess respiratory rate (fR, in breaths per minute) and tidal volume (VT, in microliters per gram) in conscious rats. Animals are placed in a recording chamber (˜700 ml) flushed continuously with a humidified mixture of 79% nitrogen and 21% oxygen (temperature 22-24° C.). Level of carbon dioxide (CO2) in the chamber is monitored online using a fast-response CO2 analyser. Animals are allowed ˜40 min to acclimatize to the chamber environment at normoxia-normocapnia (21% oxygen, 79% nitrogen and <0.3% CO2) before measurements of baseline ventilation are taken.
Respiratory depression is induced in conscious rats by intramuscular (10 mg/kg) administration of morphine.
Data are acquired using Power1401 interface, saved and analyzed off-line using Spike2 software (CED Limited, Cambridge, UK).
Parameters measured included fR—respiratory rate (in breaths per minute); VT—tidal volume (in microliters per gram of body weight); VE—minute ventilation fR×VT (in microliters per gram of body weight per minute).
The data were analysed by ANOVA followed by the Tukey-Kramer's post hoc test, Student's t-test, or non-parametric Wilcoxon-Mann-Whitney U test, as appropriate. Data are presented as means±SEM.

[1] = tested on: Methyl-CpG-binding protein 2 (Mecp) null mice; assay: Rett's syndrome model; plethysmography in Mecp2 null mice; type: in vivo; conditions: tianeptine 10 mg/kg i.p. in saline, 5.6 Hz before treatment, p=0.037, paired t test
Procedure: Methyl-CpG-binding protein 2 (Mecp) null mice were of the B6.129P2(C)-Mecp2^tm1.1Bird strain. Mice were produced and genotyped using published methods (Miralvès J, Magdeleine E, Joly E. Design of an improved set of oligonucleotide primers for genotyping MeCP2^tm1.1Bird KO mice by PCR. Mol Neurodegener. 2007; 2:16; Bissonnette J M, Knopp S J. Separate respiratory phenotypes in methyl-CpG-binding protein 2 (Mecp2) deficient mice. Pediatr Res. 2006; 59:513-518).
Breathing was recorded over a 60 min control period following drug treatment in the same way as for the respiratory depression experiments, with the same equipment and software. After the recording sessions, mice were euthanized with CO2.

## CN1c2ccccc2C(NCCCCCCC(=O)O)c2ccc(Cl)cc2S1(=O)=O (centres unmarked) [tianeptine, 7-[(3-chloro-6,11-dihydro-6-methyl-dibenzo[c,f][1,2]thiazepin-11-yl)amino]heptanoic acid S,S-dioxide]
Conscious rats; tianeptine 2 mg/kg ip, 5 min after administration, conscious rats, p<0.05
  increase in the respiratory activity: ~30%
Conscious rats; tianeptine 2 mg/kg ip, morphine 10 mg/kg intramuscular 5 minutes after tianeptine, conscious rats
  morphine-induced respiratory depression: appears to prevent morphine-induced respiratory depression
Conscious rats; tianeptine 10 mg/kg, rats
  increase in the respiratory activity: not observed
Conscious rats; tianeptine 10 mg/kg, followed by morphine 10 mg/kg intramuscular, rats
  morphine-induced respiratory depression: prevented
[1]
  peak dominant frequency (respiratory frequency pattern) after drug treatment: 4.8 Hz
